Where a name gives a salt, the structure may show the parent alone. Read-outs that look alike come from different tables or passages of the source.
What was measured:
[1] = laser diffraction; for Size of crystals, 10% < / Size of crystals, 50% < / Size of crystals, 90% < / Size of crystals, Mean: quetiapine conc. 20 w-%, ethanol-water 80 w-% (Example 5), 85 w-% (Example 6)
Description: In examples 5 and 6 the crystal size analysis was performed using laser diffraction analyser (light scattering). Volume cell was 15 ml, optical length 0.6 cm, obscuration about 8 to 12%. Methyl siloxane was used as a dispersant.

Size of crystals, 10% < [1]	Size of crystals, 50% < [1]	Size of crystals, 90% < [1]	Size of crystals, Mean [1]	90% of the crystals below ([1]; water content of crystallization solvent between 15 to 20 w-%)	size of crystals (ratio of alcohol to water 77:22)	size of crystals (ratio of alcohol to water 91:9)	SMILES
10% < 14 μm	50% < 44 μm	90% < 148 μm	Mean: 60 μm				OCCOCCN1CCN(C2=Nc3ccccc3Sc3ccccc32)CC1 [Example 6, quetiapine hemifumarate]
				below 244 μm	50-100 microns	10-20 microns	OCCOCCN1CCN(C2=Nc3ccccc3Sc3ccccc32)CC1 [quetiapine hemifumarate, 11-(4-[2-(2-hydroxyethoxy)ethyl]-1-piperazinyl]dibenzo[b,f]-1,4-thiazepine hemifumarate (2:1) salt]
10% < 25 μm	50% < 83 μm	90% < 244 μm	Mean: 108 μm				OCCOCCN1CCN(C2=Nc3ccccc3Sc3ccccc32)CC1 [Example 5, quetiapine hemifumarate]
